Here are results for four compounds from patent US20170209434A1, “PROTEIN PHOSPHATASE 2A INHIBITORS FOR TREATING MYELODYSPLASTIC SYNDROMES” (priority 2014, published 2017).

The subject of one data set is HL60 cells. As to the kind of experiment: MTT assay, HL60 cell proliferation. Type of data set: cell-based. The following applies: 72 hours, significant difference at 1 μM. As for the experimental part: (§1) FIG. 7A is a graph showing proliferation of HL60 cells 72 hours after treatment with 0.001 μM, 0.01 μM, 0.1 μM, 1.0 μM, 10 μM, or 100 μM LB-100 (grey) or 0.001 μM, 0.01 μM, 0.1 μM, 1.0 μM, 10 μM, or 100 μM lenalidomide (black), compared to control or vehicle. FIGS. 7B to 7C are graphs showing proliferation of Namalwa cells 72 hours after treatment with 0.001 μM, 0.01 μM, 0.1 μM, 1.0 μM, 10 μM, or 100 μM LB-100 (♦), 0.001 μM, 0.01 μM, 0.1 μM, 1.0 μM, 10 μM, or 100 μM lenalidomide (▪), or 0.001 μM, 0.01 μM, 0.1 μM, 1.0 μM, 10 μM, or 100 μM cantharidin (▴), compared to control or vehicle.
(§2) HL60 cells and U937 cells were compared (FIGS. 8A and 8B).

The test system of the next data set is del(5q) patient BM MNCs. As to the kind of experiment: Apoptosis of del(5q) patient BM MNCs. Format: cell-based. As for the experimental part: FIG. 6 is a bar graph showing percentage of primary BM MNCs from a Del(5q) patient undergoing apoptosis after treatment with 0.1 μM, 1.0 μM, or 10 μM lenalidomide (grey) or 0.1 μM, 1.0 μM, or 10 μM LB-100 (black), compared to a control.

In data set [1] the test system is Namalwa cells. Nature of the data set: Cell cycle analysis of Namalwa cells treated with LB-100. Type of data set: cell-based. Particulars: for G1 / G2/M / S / Percent G1: 24 hours. As for the experimental part:
FIG. 1 is a bar graph showing percent of Namalwa cells in G1 arrest 24 hours after treatment with 0.1 μM, 1.0 μM or 10 μM LB-100 dissolved in DMSO (grey) or MSG (black) compared to control and vehicle.
FIG. 2 is a bar graph showing percent of Namalwa cells in G1 arrest 24 hours after treatment with 0.1 μM, 1.0 μM or 10 μM LB-100 compared to control.

For data set [2], the system named is Namalwa cells. Nature of the data set: Apoptosis of Namalwa cells. The following applies: for Percent Apoptosis: dissolved in MSG. Type of data set: cell-based. As to the method:
FIG. 3 is a bar graph showing percentage of Namalwa cells undergoing apoptosis after treatment with 0.1 μM, 1.0 μM or 10 μM LB-100 dissolved in DMSO (grey) or MSG (black) compared to control and vehicle.
FIGS. 4A to 4D are a series of flow cytometry plots showing percentage of Namalwa cells undergoing apoptosis after treatment with control (FIG. 4A), 0.1 μM (FIG. 4B), 1.0 μM (FIG. 4C), or 10 μM (FIG. 4D) LB-100.

Data set [3] concerns Non-del(5q) patient BM MNCs. As to the kind of experiment: Apoptosis of non-del(5q) patient BM MNCs. Type of data set: cell-based. The following applies: FIG. 5, 0.1-10 μM.
A further data set relates to non-del(5q) MDS. Nature of the data set: Additional studies of efficacy in non-del(5q) MDS (Example 3). Format: in vivo. Particulars: subject afflicted with non-del(5q) MDS. As to the method: (§3) Additional studies, similar to the aforementioned Phase I design, are conducted to evaluate the efficacy of LB-100, alone or in combination with lenalidomide, in patients with del(5q) MDS or non-del(5q) MDS.
An amount of LB-100 is administered to a subject afflicted with non-del(5q) MDS. […] An amount of LB-100 in combination with lenalidomide is administered to a subject afflicted with non-del(5q) MDS.

A further data set addresses protein phosphatase 2A (Homo sapiens, UniProt P67775). Particulars: cited from earlier work.
Data set [4] concerns Namalwa cells. As to the kind of experiment: MTT assay, Namalwa cell proliferation. Format: cell-based. The following applies: 72 hours. As for the experimental part:
as §1, §2

In the next data set the test system is del(5q) MDS. Nature of the data set: Additional studies of efficacy in del(5q) MDS (Example 3). Format: in vivo. The following applies: subject afflicted with del(5q) MDS. As for the experimental part:
as §3
An amount of LB-100 is administered to a subject afflicted with del(5q) MDS. […] An amount of LB-100 in combination with lenalidomide is administered to a subject afflicted with del(5q) MDS.

Data set [5] concerns MDS that is resistant to lenalidomide. As to the kind of experiment: Additional studies of efficacy in lenalidomide-resistant MDS (Example 3). Type of data set: in vivo. As for the experimental part: as §3
The next data set deals with non-del (5q) MDS. Particulars: cited from earlier work.
A further data set has as its system del(5q) MDS patients. The following applies: cited from earlier work.
The next data set has as its target protein phosphatase 1. Particulars: cited from earlier work.

Sequence of protein phosphatase 2A (P67775 whole entry): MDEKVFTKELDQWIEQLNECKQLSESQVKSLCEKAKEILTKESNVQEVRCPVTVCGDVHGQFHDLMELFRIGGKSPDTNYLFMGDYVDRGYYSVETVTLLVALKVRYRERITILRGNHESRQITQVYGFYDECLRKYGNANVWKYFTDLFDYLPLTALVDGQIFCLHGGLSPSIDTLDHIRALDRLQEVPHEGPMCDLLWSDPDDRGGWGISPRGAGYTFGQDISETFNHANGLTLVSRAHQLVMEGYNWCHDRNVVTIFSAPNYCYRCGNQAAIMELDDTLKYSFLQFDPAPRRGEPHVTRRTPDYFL

For the compound `CN1CCN(C(=O)C2C(C(=O)O)[C@H]3CC[C@@H]2O3)CC1` (stereo partly drawn) [LB100], the “Proliferation in comparison to treatment with lenalidomide (in words)” value in the data set with HL60 cells is recorded as “significant decreased proliferation”. In addition, the “Apoptosis, dose dependence (in words)” value in the data set on del(5q) patient BM MNCs (FIG. 6, 0.1-10 μM) is on record as “induced apoptosis in a dose dependent fashion”. In addition, the “Apoptosis (in words)” value with del(5q) patient BM MNCs (at 1 μM) is “mild increase in apoptosis”; in the data set with Namalwa cells [2] (at 10 μM when dissolved in MSG), “led to apoptosis”; in data set [3] it was “did not lead to apoptosis”. The “Cytotoxicity compared with lenalidomide (in words)” value with del(5q) patient BM MNCs (at 10 μM) is listed as “more cytotoxic than lenalidomide”. The G1 is 17.73% with Namalwa cells [1] (0.1 μM, dissolved in DMSO); 18.69% in the data set on Namalwa cells [1] (0.1 uM, dissolved in MSG); 18.38% in the data set on Namalwa cells [1] (1.0 μM, dissolved in DMSO); 41.48% in the data set with Namalwa cells [1] (1.0 uM, dissolved in MSG); 28.97% in the data set with Namalwa cells [1] (10 μM, dissolved in DMSO); 46.34% in the data set on Namalwa cells [1] (10 uM, dissolved in MSG). Moreover, the G2/M in the data set with Namalwa cells [1] (0.1 μM, dissolved in DMSO) was determined as 16.51; in the data set on Namalwa cells [1] (0.1 uM, dissolved in MSG) it was 17.93; in the data set on Namalwa cells [1] (1.0 μM, dissolved in DMSO), 18.22; in the data set with Namalwa cells [1] (1.0 uM, dissolved in MSG) it was 6.96; in the data set on Namalwa cells [1] (10 μM, dissolved in DMSO), 8.9; in the data set on Namalwa cells [1] (10 uM, dissolved in MSG) it was 8.5. For the same compound, the G2/M with Namalwa cells [1] (Table 2, 0.1 μM) is listed as 12.06%; in the data set with Namalwa cells [1] (Table 2, 1.0 μM) it was 20.8%; with Namalwa cells [1] (Table 2, 10 μM), 6.13%. For the same compound, the S is 65.76 in the data set on Namalwa cells [1] (0.1 μM, dissolved in DMSO); 63.37 in the data set on Namalwa cells [1] (0.1 uM, dissolved in MSG); 63.41 in the data set on Namalwa cells [1] (1.0 μM, dissolved in DMSO); 51.56 in the data set on Namalwa cells [1] (1.0 uM, dissolved in MSG); 62.13 with Namalwa cells [1] (10 μM, dissolved in DMSO); 45.15 in the data set with Namalwa cells [1] (10 uM, dissolved in MSG). Further, the S in the data set with Namalwa cells [1] (Table 2, 0.1 μM) was 63.93%; in the data set with Namalwa cells [1] (Table 2, 1.0 μM), 47.85%; in the data set with Namalwa cells [1] (Table 2, 10 μM) it was 42.69%. The “Percent G1” value with Namalwa cells [1] (Table 2, 0.1 μM) worked out at 24.01%; with Namalwa cells [1] (Table 2, 1.0 μM), 31.35%; with Namalwa cells [1] (Table 2, 10 μM), 51.18%. For the same compound, the “G1 arrest, dose dependence (in words)” value in the data set on Namalwa cells [1] (Table 2 and FIG. 2, 0.1-10 μM) was “led to G1 arrest in a dose-dependent fashion”. Further, the “G1 arrest (in words)” value was “led to G1 arrest” in the data set with Namalwa cells [1] (at 10 μM in DMSO); “led to G1 arrest” in the data set on Namalwa cells [1] (at 1 and 10 μM in MSG). Besides, the results for the “Percent Apoptosis” value in the data set with Namalwa cells [2] (0.1 μM), in the data set with Namalwa cells [2] (1.0 μM) and in the data set with Namalwa cells [2] (10 μM) were 6.18%, 6.5% and 55.8%, respectively. Also, in the data set with non-del(5q) MDS, the “Efficacy in treating non-del(5q) MDS (in words)” value is listed as “effective to treat”. In addition, at protein phosphatase 2A, the “PP2A inhibition (in words)” value is listed as “greater potency than lenalidomide”. The “Proliferation in comparison to control (in words)” value in the data set with Namalwa cells [4] is reported as “significant decrease in proliferation”. In addition, the “Efficacy in treating del(5q) MDS (in words)” value with del(5q) MDS is on record as “effective to treat”. For the same compound, the “Efficacy in treating MDS resistant to lenalidomide (in words)” value in data set [5] is listed as “effective to treat”.

Consider `Nc1cccc2c1CN(C1CCC(=O)NC1=O)C2=O` (stereo not drawn) [Lenalidomide, lenalidomide], for which the “transfusion independence (TI), % of patients” value in the data set on non-del (5q) MDS was 26%; with del(5q) MDS patients (lower risk MDS patients with del(5q)), 67%. In addition, in the data set on del(5q) MDS patients (patients with del5q MDS), the “duration of response, median” value was 2.5 years.

With `C=C1[C@@H](O)[C@@H]2O[C@]3(CC[C@H](/C=C/[C@@H](C)[C@@H]4CC(C)=C[C@@]5(O[C@H](C[C@@](C)(O)C(=O)O)CC[C@H]5O)O4)O3)CC[C@H]2O[C@@H]1[C@@H](O)C[C@H](C)[C@H]1O[C@@]2(CCCCO2)CC[C@H]1C` [Okadaic acid, 9,10-Deepithio-9,10-didehydroacanthifolicin], on protein phosphatase 1, the IC50 is 3 to 15 nM. In addition, on protein phosphatase 2A, the IC50 is 0.1 to 1 nM; the “Selectivity over PP2B, PP2C and a range of other phosphatases (in words)” value was “highly selective”.

Take `C[C@@]12C(=O)OC(=O)[C@]1(C)[C@H]1CC[C@@H]2O1` [cantharidin]: on protein phosphatase 2A, the “PP2A inhibition (in words)” value is “potent and selective inhibitor of PP2A”.
